13 molecules from patent publication US6956040B2, “Oxazolidinone piperazinyl derivatives as potential antimicrobials” (Ranbaxy Laboratories Limited, priority 2001, dated 2005) can be followed below.

The MIC is the least concentration at which growth counts as inhibited.

What all share (experiment): MIC, agar incorporation method
The test system of one test is S. aureus 25923. Format: cell-based, Staphylococcus aureus. The settings on record: S. aureus 25923; agar incorporation. From the text: (§1) The compounds of the invention display antibacterial activity when tested by the agar incorporation method. The following minimum inhibitory concentrations (μg/ml) were obtained for representative compounds of the invention which are given below in the following tables.
(§2) • 1) S.aureus ATCC 25923—Staphylococus aureus ATCC 25923 • 2) MRSA 15187—Methicillin Resistant Staphylococcus aureus • 3) Ent. faecalis ATCC 29212—Enterococcus faecalis ATCC 29212 • 4) Ent. faecium 6A—Enterococcus faecium 6A Van®, Cipro® • 5) Strep. pne. ATCC 6303—Streptococcus pneumoniae ATCC 6303 • 6) Strep. pyog. ATCC 19615—Streptococcus pyogenes • 7) S. epidermidis—Staphylococcus epidermidis ATCC 12228
(§3) Briefly, the compounds were dissolved in DMSO and doubling dilution of the compounds were incorporated into Meuller Hilton agar before solidification. Inoculum was prepared by suspending 4 to 5 colonies into 5 ml of normal saline solution and adjusting the turbidity to 0.5 Macfarland turbidity standard tables (1.5×10^8 CFU/ml), after appropriate dilutions, 10^4 CFU/spot was transfered into the surface of dried plate and incubated for 18 hours (24 hours for MRSN studies). The concentration showing no growth of the inoculated culture was recorded as the MIC. Appropriate ATCC standard strains were simultaneously tested and result recorded only when the MIC's against standard antibiotics were within the acceptable range.

The test system of the next test is MRSA 15187. In kind it is cell-based, Staphylococcus aureus. The settings on record: MRSA 15187; agar incorporation.
Description: as §1, §2, §3

Another test deals with E. faecalis 29212. In kind it is cell-based, Enterococcus faecalis. The settings on record: E. faecalis 29212; agar incorporation.
Description: as §1, §2, §3

The test system of the next test is MRSA 33. Format: cell-based, Staphylococcus aureus. Conditions: MRSA 33; agar incorporation. The procedure:
as §1, §3

The test system of another test is VRE 6A. In kind it is cell-based, Enterococcus faecium. Conditions: VRE 6A; agar incorporation.
Description: as §1, §2, §3

In the next test the test system is S. pneum 6303. In kind it is cell-based, Streptococcus pneumoniae. Conditions: S. pneum 6303; agar incorporation.
Description: as §1, §2, §3

The next test deals with S. pyogenes 19615. Format: cell-based, Streptococcus pyogenes. Conditions: S. pyogenes 19615; agar incorporation.
Description: as §1, §2, §3

The next test deals with S. pneum AB 34. Format: cell-based, Streptococcus pneumoniae. Conditions: S. pneum AB 34; agar incorporation. The procedure:
as §1, §3

The next test concerns MRSA 562. In kind it is cell-based, Staphylococcus aureus. The settings on record: MRSA 562; agar incorporation; Table 1. The procedure:
as §1, §3

Values after ≈ are worked out from the molar mass of the structure shown.

Consider `CC(=O)NC[C@H]1CN(c2ccc(N3CCN(C(=O)c4ccco4)CC3)c(F)c2)C(=O)O1` [Compound No. 01, (S)-N-[[3-[3-Fluoro-4-[N-1-[4-(2-furoyl)piperazinyl]]-phenyl]-2-oxo-5-oxazolidinyl]methyl]acetamide], for which the MIC in the test on S. aureus 25923 is 2 µg/mL (≈ 4.65 µM); against MRSA 15187, 2 µg/mL (≈ 4.65 µM); against E. faecalis 29212 it was 2 µg/mL (≈ 4.65 µM); against MRSA 33 it was 4 µg/mL (≈ 9.29 µM); against VRE 6A it was 2 µg/mL (≈ 4.65 µM); with S. pneum 6303, 2 µg/mL (≈ 4.65 µM). Besides, the MIC in the test with S. pyogenes 19615 and against S. pneum AB 34 was 1 µg/mL (≈ 2.32 µM) in each case.

As for `CC(=O)NC[C@H]1CN(c2ccc(N3CCN(Cc4ccc(C=O)o4)CC3)c(F)c2)C(=O)O1` [Compound No. 02, (S)-N-[[3-[3-Fluoro-4-[N-1[4-{2-furyl(5-formyl)methyl}]piperazinyl]phenyl]-2-oxo-5-oxazolidinyl]methyl]acetamide], the MIC in the test with S. aureus 25923 amounted to 1 µg/mL (≈ 2.25 µM); against MRSA 15187, 2 µg/mL (≈ 4.5 µM); in the test on E. faecalis 29212, 8 µg/mL (≈ 18 µM); against MRSA 562, 1 µg/mL (≈ 2.25 µM); with MRSA 33, 2 µg/mL (≈ 4.5 µM); with VRE 6A, 8 µg/mL (≈ 18 µM). Further, the results for the MIC against S. pneum 6303, in the test with S. pyogenes 19615 and with S. pneum AB 34 were 4 µg/mL (≈ 9 µM), 8 µg/mL (≈ 18 µM) and 8 µg/mL (≈ 18 µM), respectively.

Turning to `CC(=O)NC[C@H]1CN(c2ccc(N3CCN(C(=O)c4ccc(CCl)o4)CC3)c(F)c2)C(=O)O1` [Compound No. 05, (S)-N-[[3-Fluoro-4-[N-1[4-(5-chloromethyl-2-furoyl)piperazinyl]phenyl]-2-oxo-5-oxazolidinyl]methyl]acetamide], the MIC in the test with S. aureus 25923 stood at 16 µg/mL (≈ 33.4 µM); with MRSA 15187 it was 4 µg/mL (≈ 8.35 µM); with E. faecalis 29212, 8 µg/mL (≈ 16.7 µM); against MRSA 33, 4 µg/mL (≈ 8.35 µM); in the test with VRE 6A, 8 µg/mL (≈ 16.7 µM); in the test with S. pneum 6303 it was 4 µg/mL (≈ 8.35 µM). In addition, the MIC against S. pyogenes 19615 and in the test with S. pneum AB 34 was 4 µg/mL (≈ 8.35 µM) each time.

For the molecule `CC(=O)NC[C@H]1CN(c2ccc(N3CCN(Cc4ccc(Cl)s4)CC3)c(F)c2)C(=O)O1` [Compound No. 10, (S)-N[[3-[3-Fluoro-4-[N-1[4-{2-thienyl(5-chloro)methyl}]-piperazinyl]phenyl]2-oxo-5-oxazolidinyl]methyl]acetamide], the MIC against S. aureus 25923 was 8 µg/mL (≈ 17.1 µM); in the test on MRSA 15187 it was 4 µg/mL (≈ 8.57 µM); in the test with E. faecalis 29212, 8 µg/mL (≈ 17.1 µM); in the test on MRSA 33, 4 µg/mL (≈ 8.57 µM); in the test with VRE 6A it was 4 µg/mL (≈ 8.57 µM); in the test on S. pneum 6303, 4 µg/mL (≈ 8.57 µM). The MIC with S. pyogenes 19615 was found to be 1 µg/mL (≈ 2.14 µM); in the test on S. pneum AB 34, 8 µg/mL (≈ 17.1 µM).

Regarding `CC(=O)NC[C@H]1CN(c2ccc(N3CCN(Cc4ccc([N+](=O)[O-])o4)CC3)c(F)c2)C(=O)O1.O=C(O)CC(O)(CC(=O)O)C(=O)O` [Compound No. 17], the MIC is 2 µg/mL in the test with S. aureus 25923; 2 µg/mL in the test on MRSA 15187; 2 µg/mL against E. faecalis 29212; 2 µg/mL in the test with MRSA 33; 4 µg/mL in the test on VRE 6A; 2 µg/mL in the test with S. pneum 6303. Besides, the MIC against S. pyogenes 19615 and against S. pneum AB 34 was 1 µg/mL each time.

On to `CC(=O)NC[C@H]1CN(c2ccc(N3CCN(Cc4ccc([N+](=O)[O-])s4)CC3)c(F)c2)C(=O)O1` [Compound No. 23, (S)-N[[3-[3-Fluoro-4-[N-1[4-{2-thienyl(5-nitro)methyl}]piperazinyl]phenyl]2-oxo-5-oxazolidinyl]methyl]acetamide], for which the MIC against S. aureus 25923, in the test with MRSA 15187, against E. faecalis 29212, in the test with MRSA 33, against VRE 6A and in the test with S. pneum 6303 was 8 µg/mL (≈ 16.8 µM) throughout. Further, the MIC against S. pyogenes 19615 turned out to be 1 µg/mL (≈ 2.09 µM); in the test with S. pneum AB 34, 8 µg/mL (≈ 16.8 µM).

As to `CC(=O)NC[C@H]1CN(c2ccc(N3CC4C(C3)C4N(C)C(=O)c3ccoc3)c(F)c2)C(=O)O1` (stereo partly drawn) [Compound No. 32, (S)-N-[[3-[3-Fluoro[4-[3-(1α, 5α, 6α)-6-[N-(3-furoyl)-N-methyl]amino]-3-azabicyclo-[3.1.0]hexane]phenyl]-2-oxo-5-oxazolidinyl]methyl]acetamide], the MIC was found to be 8 µg/mL (≈ 17.5 µM) in the test on S. aureus 25923; 8 µg/mL (≈ 17.5 µM) against MRSA 15187; 8 µg/mL (≈ 17.5 µM) in the test on E. faecalis 29212; 8 µg/mL (≈ 17.5 µM) with MRSA 33; 8 µg/mL (≈ 17.5 µM) against VRE 6A; 4 µg/mL (≈ 8.76 µM) with S. pneum 6303. For the same molecule, the MIC in the test on S. pyogenes 19615 is 1 µg/mL (≈ 2.19 µM); in the test on S. pneum AB 34, 4 µg/mL (≈ 8.76 µM).

With `CC(=O)NC[C@H]1CN(c2ccc(N3C[C@@H]4[C@H](C3)[C@H]4N(C)C(=O)c3ccc(Br)o3)c(F)c2)C(=O)O1` [Compound No. 33, (S)-N-[[3-[3-Fluoro[4-[3-(1α,5α,6α)-6-[N-(5-bromo-2-furoyl)-N-methyl]amino]-3-azabicyclo-[3.1.0]hexane]phenyl]-2-oxo-5-oxazolidinyl]methyl]acetamide], the MIC stood at 4 µg/mL (≈ 7.47 µM) with S. aureus 25923; 4 µg/mL (≈ 7.47 µM) with MRSA 15187; 4 µg/mL (≈ 7.47 µM) in the test on E. faecalis 29212; 4 µg/mL (≈ 7.47 µM) in the test on MRSA 33; 4 µg/mL (≈ 7.47 µM) against VRE 6A; 8 µg/mL (≈ 14.9 µM) in the test with S. pneum 6303. The MIC is 0.5 µg/mL (≈ 0.934 µM) against S. pyogenes 19615 and 4 µg/mL (≈ 7.47 µM) with S. pneum AB 34.

`CC(=O)NC[C@H]1CN(c2ccc(N3CCC(N(C)Cc4ccc([N+](=O)[O-])s4)CC3)c(F)c2)C(=O)O1` [Compound No. 51, (S)-N-[[3-[4-[4-(N-methyl-N-2-thienyl(5-nitro)methyl)-aminopiperidine-1-yl]-3-fluorophenyl]-2oxo-oxazolidin-5-yl]methyl]acetamide]: the MIC in the test with S. aureus 25923 amounted to 2 µg/mL (≈ 3.96 µM); against MRSA 15187, 1 µg/mL (≈ 1.98 µM); with E. faecalis 29212, 4 µg/mL (≈ 7.91 µM); against MRSA 562, 1 µg/mL (≈ 1.98 µM); with MRSA 33 it was 1 µg/mL (≈ 1.98 µM); in the test with VRE 6A it was 4 µg/mL (≈ 7.91 µM). For the same molecule, the MIC against S. pyogenes 19615 came out at 0.5 µg/mL (≈ 0.989 µM); against S. pneum AB 34, 2 µg/mL (≈ 3.96 µM).

As to `CC(=O)NC[C@H]1CN(c2ccc(N3CCN(Cc4ccc(C=NO)o4)CC3)c(F)c2)C(=O)O1` [Compound No. 60, (S)-N-[[3-[3-Fluoro-4-[N-1-[4-(2-furyl-(5-aldoxime)methyl}]piperazinyl]phenyl]-2-oxo-5-oxazolidinyl]methyl]acetamide], the MIC in the test on S. aureus 25923 was 2 µg/mL (≈ 4.35 µM); in the test on MRSA 15187 it was 2 µg/mL (≈ 4.35 µM); in the test with E. faecalis 29212, 8 µg/mL (≈ 17.4 µM); in the test on MRSA 33, 2 µg/mL (≈ 4.35 µM); against VRE 6A, 16 µg/mL (≈ 34.8 µM); with S. pneum 6303 it was 8 µg/mL (≈ 17.4 µM). Besides, the values for the MIC in the test on S. pyogenes 19615 and with S. pneum AB 34 were 4 µg/mL (≈ 8.71 µM) and 8 µg/mL (≈ 17.4 µM), respectively.

As for `COC(=O)Cc1ccc(NC(=O)ON=Cc2ccc(CN3CCN(c4ccc(N5C[C@H](CNC(C)=O)OC5=O)cc4F)CC3)o2)cc1` [Compound No. 61], the MIC against S. aureus 25923, in the test with MRSA 15187, with E. faecalis 29212, against MRSA 33, in the test with VRE 6A and against S. pneum 6303 was 8 µg/mL (≈ 12.3 µM) throughout. Also, the MIC in the test on S. pyogenes 19615 and in the test with S. pneum AB 34 was 8 µg/mL (≈ 12.3 µM) each time.

On to `CC(=O)NC[C@H]1CN(c2ccc(N3CC4C(C3)C4N(C)Cc3ccc(C=O)o3)c(F)c2)C(=O)O1` (stereo partly drawn) [Compound No. 72, (S)-N-[[3-[3-Fluoro[4-[3-(1α,5α,6α)-6-[N-(5-formyl-2-furylmethyl)-N-methyl]amino]-3-azabicyclo-[3.1.0]hexane]phenyl]-2-oxo-5-oxazolidinyl]methyl]acetamide], for which the MIC is 8 µg/mL (≈ 17 µM) in the test on S. aureus 25923; 4 µg/mL (≈ 8.5 µM) in the test with MRSA 15187; 8 µg/mL (≈ 17 µM) against E. faecalis 29212; 4 µg/mL (≈ 8.5 µM) in the test with MRSA 33; 8 µg/mL (≈ 17 µM) against VRE 6A; 4 µg/mL (≈ 8.5 µM) in the test on S. pneum 6303. Further, the MIC in the test on S. pyogenes 19615 came to 0.25 µg/mL (≈ 0.531 µM); against S. pneum AB 34, 4 µg/mL (≈ 8.5 µM).

Consider `CC(=O)NC[C@H]1CN(c2ccc(N3CC4C(C3)C4N(C)C(=O)c3ccsc3)c(F)c2)C(=O)O1` (stereo partly drawn) [Compound No. 73, (S)-N-[[3-[3-Fluoro[4-[3-(1α,5α,6α)-6-[N-(3-thienoyl)-N-methyl]amino]-3-azabicyclo-[3.1.0]hexane]phenyl]-2-oxo-5-oxazolidinyl]methyl]acetamide], for which the MIC in the test with S. aureus 25923 turned out to be 8 µg/mL (≈ 16.9 µM); in the test on MRSA 15187, 8 µg/mL (≈ 16.9 µM); against E. faecalis 29212, 8 µg/mL (≈ 16.9 µM); against MRSA 33, 8 µg/mL (≈ 16.9 µM); against VRE 6A, 8 µg/mL (≈ 16.9 µM); in the test with S. pneum 6303 it was 4 µg/mL (≈ 8.46 µM). For the same molecule, the MIC was 1 µg/mL (≈ 2.12 µM) in the test with S. pyogenes 19615 and 8 µg/mL (≈ 16.9 µM) against S. pneum AB 34.
